From patent publication US6319702A, “Nucleic acids encoding mutant human carboxypeptidase A enzymes” (Glaxo Wellcome, Inc., priority 1993, dated 2001)
Where two headings read alike, the source gives them in different places.

Legend:
[1] = test system: 268gly; test: Enzyme kinetics of prodrugs with 268gly mutant of human CPA1 (coupled assay); type: biochemical
Excerpt: (§1) As indicated herein, the in vivo stable prodrug of the present invention should be a better substrate for a mutant enzyme than the corresponding wild type enzyme in order for the stable prodrug to be activated selectively at the tumour. […] The most relevant kinetic constant in the table is the kcat/Km, which provides an estimate of the second order rate constant for the enzyme catalyzed conversion of prodrug to methotrexate. Thus, the larger the kcat/Km, the more efficient the enzyme with a particular substrate. […] Thus, the single mutation at 268 from thr to gly converted very poor substrates in the wild type enzyme to excellent substrates in the mutant enzyme. […] Thus, the compounds are much better substrates for the mutant enzyme than the wild type enzyme which permits very specific tumor targeted activation of the nontoxic, stable prodrug to the active agent.
(§2) Kinetics were determined by a modification of the coupled assay of Kuefner, et al (1989) Biochemistry 28 2288-2297 in which the product MTX is converted by excess carboxypeptidase G to the pteroate of MTX. In this assay the reaction is followed spectrophotometrically at 315 nm; at this wavelength the change in molar absorbtivity for the coupled reaction was determined to be 9.57 mM^-1 cm^-1. Assays were performed at 25° C. in 25 mM tris-HCl, 100 mM NaCl, pH 7.4. Prodrugs were preincubated at 25° C. with buffer and 17 milliunits of Sigma #C-9658 carboxypeptidase G in 1 ml total volume. Assay was initiated with carboxypeptidase A or the appropriate mutant. Initial velocities were obtained, and standard Michaelis-Menten calculations were used to determine kinetic constants (in Biochemistry, Lehninger, A. L. 1970, Worth Publishers, Inc, NY).

[2] = test system: 268ala; test: Enzyme kinetics of prodrugs with 268ala mutant of human CPA1 (coupled assay); type: biochemical; conditions: rate too slow to assay
Excerpt: as §1, §2

[3] = test system: mutant enzyme; test: Substrate behaviour with mutant enzyme; type: biochemical, human
Excerpt: This type of compound is not useful for ADEPT.

[4] = target: T1, wild type human carboxypeptidase A1 (Homo sapiens, UniProt P15085); test: Enzyme kinetics of prodrugs with wild type human carboxypeptidase A1 (coupled assay); type: biochemical
T1 sequence (P15085 111-419): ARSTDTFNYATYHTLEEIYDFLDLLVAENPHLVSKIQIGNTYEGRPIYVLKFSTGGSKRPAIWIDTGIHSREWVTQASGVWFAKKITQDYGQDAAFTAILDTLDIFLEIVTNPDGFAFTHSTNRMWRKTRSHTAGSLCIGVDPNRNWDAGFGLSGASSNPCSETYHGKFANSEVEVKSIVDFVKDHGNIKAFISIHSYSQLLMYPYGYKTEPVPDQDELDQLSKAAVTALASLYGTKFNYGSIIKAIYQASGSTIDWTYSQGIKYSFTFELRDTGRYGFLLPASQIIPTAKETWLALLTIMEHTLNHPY
Excerpt: as §1, §2

[5] = in vivo; conditions: mouse, iv
[6] = Stability and biodistribution of prodrugs in vivo (HPLC of plasma and tissues); parameters: species or system mice (CD-1 nude; BALB/C where indicated); conditions: for stability in vivo (in words): mice
[7] = CECUM, 30 min, 50 mg/kg i.p. or i.v., CD-1 nude mice
[8] = CECUM, 120 min, 50 mg/kg i.p. or i.v., CD-1 nude mice
[9] = FECES, 30 min, 50 mg/kg i.p. or i.v., CD-1 nude mice
[10] = FECES, 120 min, 50 mg/kg i.p. or i.v., CD-1 nude mice
[11] = KIDNEY, 30 min, 50 mg/kg i.p. or i.v., CD-1 nude mice
[12] = KIDNEY, 120 min, 50 mg/kg i.p. or i.v., CD-1 nude mice
[13] = LARGE INTESTINE, 120 min, 50 mg/kg i.p. or i.v., CD-1 nude mice
[14] = LIVER, 30 min, 50 mg/kg i.p. or i.v., CD-1 nude mice
[15] = LIVER, 120 min, 50 mg/kg i.p. or i.v., CD-1 nude mice
[16] = SMALL INTESTINE, 30 min, 50 mg/kg i.p. or i.v., CD-1 nude mice
[17] = SMALL INTESTINE, 120 min, 50 mg/kg i.p. or i.v., CD-1 nude mice
[18] = TUMOR, 30 min, 50 mg/kg i.p. or i.v., CD-1 nude mice
[19] = mouse, cecum, 50 mg/kg, CECUM, 30 min, 50 mg/kg i.p. or i.v., CD-1 nude mice, read-out: stability: percentage of material observed as intact prodrug, cecum
[20] = mouse, cecum, 50 mg/kg, CECUM, 120 min, 50 mg/kg i.p. or i.v., CD-1 nude mice, read-out: stability: percentage of material observed as intact prodrug, cecum
[21] = mouse, feces, 50 mg/kg, FECES, 30 min, 50 mg/kg i.p. or i.v., CD-1 nude mice, read-out: stability: percentage of material observed as intact prodrug, feces (converted)
[22] = mouse, feces, 50 mg/kg, FECES, 120 min, 50 mg/kg i.p. or i.v., CD-1 nude mice, read-out: stability: percentage of material observed as intact prodrug, feces
[23] = mouse, kidney, 50 mg/kg, KIDNEY, 30 min, 50 mg/kg i.p. or i.v., CD-1 nude mice, read-out: stability: percentage of material observed as intact prodrug, kidney
[24] = mouse, kidney, 50 mg/kg, KIDNEY, 120 min, 50 mg/kg i.p. or i.v., CD-1 nude mice, read-out: stability: percentage of material observed as intact prodrug, kidney
[25] = mouse, large intestine, 50 mg/kg, LARGE INTESTINE, 120 min, 50 mg/kg i.p. or i.v., CD-1 nude mice, read-out: stability: percentage of material observed as intact prodrug, large intestine
[26] = mouse, liver, 50 mg/kg, LIVER, 30 min, 50 mg/kg i.p. or i.v., CD-1 nude mice, read-out: stability: percentage of material observed as intact prodrug, liver (converted)
[27] = mouse, liver, 50 mg/kg, LIVER, 120 min, 50 mg/kg i.p. or i.v., CD-1 nude mice, read-out: stability: percentage of material observed as intact prodrug, liver
[28] = mouse, plasma, 50 mg/kg, PLASMA, 30 min, 50 mg/kg i.p. or i.v., CD-1 nude mice, read-out: concentration of prodrug in plasma
[29] = mouse, plasma, 50 mg/kg, PLASMA, 30 min, 50 mg/kg i.p. or i.v., CD-1 nude mice, read-out: stability: percentage of material observed as intact prodrug, plasma
[30] = mouse, small intestine, 50 mg/kg, SMALL INTESTINE, 30 min, 50 mg/kg i.p. or i.v., CD-1 nude mice, read-out: stability: percentage of material observed as intact prodrug, small intestine
[31] = mouse, small intestine, 50 mg/kg, SMALL INTESTINE, 120 min, 50 mg/kg i.p. or i.v., CD-1 nude mice, read-out: stability: percentage of material observed as intact prodrug, small intestine
[32] = mouse, tumor, 50 mg/kg, TUMOR, 30 min, 50 mg/kg i.p. or i.v., CD-1 nude mice, read-out: stability: percentage of material observed as intact prodrug, tumor

Q: What does the source list for `CN(Cc1cnc2nc(N)nc(N)c2n1)c1ccc(C(=O)N[C@@H](CCC(=O)O)C(=O)N[C@@H](Cc2cccc(C(C)(C)C)c2)C(=O)O)cc1` [Prodrug 12, N-(4-(((2,4-diamino-6-pterdinyl)methyl)methylamino)benzoyl)-L-glutam-1-yl-3-tert-butyl-L-phenylalanine]?
A: activity of 268Gly compared with human CPA1 with the L-phenylalanine prodrug (in words) [1]: not different; kcat/Km ([1]; 268Gly): 380000 M⁻¹ s⁻¹; Km ([1]; 268gly, 25° C., pH 7.4): 2.1 µM; kcat ([1]; 268gly, 25° C., pH 7.4): 0.81 s⁻¹; kcat (symbol ND) [2]: ND (not determined; rate to slow assay. kcat ≤ 0.0005/sec.); substrate for a mutant enzyme (in words) [3]: good substrates for a mutant enzyme; human CPA catalyzed reaction (in words) [4]: not measureable; kcat/Km for human CPA1 compared with that of the L-phenylalanine prodrug (in words) [4]: much lower; substrate for wild type CPA (in words) [4]: not for the wild type enzyme; kcat (symbol ND) ([4]; Human CPA1, rate too slow to assay): ND (not determined; rate to slow assay. kcat ≤ 0.0005/sec.); MTD [5]: > 40 mg/kg; NOAEL [5]: ≥ 40 mg/kg; concentration of prodrug in cecum [6, 7]: 16.3 nmol/g; concentration of prodrug in cecum [6, 8]: 402.3 nmol/g; concentration of prodrug in feces [6, 9]: 1205 nmol/g; concentration of prodrug in feces [6, 10]: 1941 nmol/g; concentration of prodrug in kidney [6, 11]: 2.2 nmol/g; concentration of prodrug in kidney [6, 12]: 0.2 nmol/g; concentration of prodrug in large intestine [6, 13]: 14.7 nmol/g; concentration of prodrug in liver [6, 14]: 58.6 nmol/g; concentration of prodrug in liver [6, 15]: 39.5 nmol/g; concentration of prodrug in small intestine [6, 16]: 550.8 nmol/g; concentration of prodrug in small intestine [6, 17]: 44.9 nmol/g; concentration of prodrug in tumor [6, 18]: 1.6 nmol/g; stability in vivo (in words) ([6]; 50 mg/kg): stable in vivo; remaining at 0.5 h [6, 19]: 100%; remaining at 2 h [6, 20]: 80.7%; remaining at 0.5 h [6, 21]: 93%; remaining at 2 h [6, 22]: 82%; remaining at 0.5 h [6, 23]: 53.4%; remaining at 2 h [6, 24]: 21.6%; remaining at 2 h [6, 25]: 66.9%; remaining at 0.5 h [6, 26]: 91.3%; remaining at 2 h [6, 27]: 89.2%; concentration at 0.5 h [6, 28]: 2600 nM; remaining at 0.5 h [6, 29]: 100%; concentration at 2 h ([6]; mouse, plasma, 50 mg/kg, PLASMA, 120 min, 50 mg/kg i.p. or i.v., CD-1 nude mice, read-out: concentration of prodrug in plasma): 700 nM; remaining at 2 h ([6]; mouse, plasma, 50 mg/kg, PLASMA, 120 min, 50 mg/kg i.p. or i.v., CD-1 nude mice, read-out: stability: percentage of material observed as intact prodrug, plasma): 100%; remaining at 0.5 h [6, 30]: 91%; remaining at 2 h [6, 31]: 67%; remaining at 0.5 h [6, 32]: 92.8%

Q: For `CN(Cc1cnc2nc(N)nc(N)c2n1)c1ccc(C(=O)N[C@@H](CCC(=O)O)C(=O)N[C@@H](Cc2cccc(C3CCC3)c2)C(=O)O)cc1` [Prodrug 11], which “substrate for a mutant enzyme (in words)” value [3] is on record?
A: good substrates for a mutant enzyme

Q: What about the “substrate for wild type CPA (in words)” value [4] of the same molecule?
A: not for the wild type enzyme

Q: And the “concentration of prodrug in cecum” value [6, 7]?
A: 4.5 nmol/g

Q: And the “concentration of prodrug in cecum” value [6, 8]?
A: 0.8 nmol/g

Q: And the “concentration of prodrug in feces” value [6, 9]?
A: 426.8 nmol/g

Q: And the “concentration of prodrug in feces” value [6, 10]?
A: 389.8 nmol/g

Q: And the “concentration of prodrug in kidney” value [6, 11]?
A: 7.3 nmol/g

Q: And the “concentration of prodrug in kidney” value [6, 12]?
A: 3.0 nmol/g

Q: And the “concentration of prodrug in large intestine” value ([6]; LARGE INTESTINE, 30 min, 50 mg/kg i.p. or i.v., CD-1 nude mice)?
A: 2.7 nmol/g

Q: And the “concentration of prodrug in large intestine” value [6, 13]?
A: 4.4 nmol/g

Q: And the “concentration of prodrug in liver” value [6, 14]?
A: 53.8 nmol/g

Q: And the “concentration of prodrug in liver” value [6, 15]?
A: 47.8 nmol/g

Q: What about the “concentration of prodrug in small intestine” value [6, 16] of the same molecule?
A: 301.3 nmol/g

Q: And the “concentration of prodrug in small intestine” value [6, 17]?
A: 140.0 nmol/g

Q: What about the “concentration of prodrug in spleen” value ([6]; SPLEEN, 30 min, 50 mg/kg i.p. or i.v., CD-1 nude mice) of the same molecule?
A: 2.7 nmol/g

Q: What about the “concentration of prodrug in tumor” value [6, 18] of the same molecule?
A: 4.8 nmol/g

Q: And the “concentration of prodrug in tumor” value ([6]; TUMOR, 120 min, 50 mg/kg i.p. or i.v., CD-1 nude mice)?
A: 2.4 nmol/g

Q: And the “stability in vivo (in words)” value ([6]; 50 mg/kg)?
A: stable in vivo

Q: And the remaining at 0.5 h [6, 19]?
A: 100%

Q: What about the remaining at 2 h [6, 20] of the same molecule?
A: 100%

Q: What about the remaining at 0.5 h [6, 21] of the same molecule?
A: 92.3%

Q: What about the remaining at 2 h [6, 22] of the same molecule?
A: 67.9%

Q: And the remaining at 0.5 h [6, 23]?
A: 83.5%

Q: What about the remaining at 2 h [6, 24] of the same molecule?
A: 82.3%

Q: What about the remaining at 0.5 h ([6]; mouse, large intestine, 50 mg/kg, LARGE INTESTINE, 30 min, 50 mg/kg i.p. or i.v., CD-1 nude mice, read-out: stability: percentage of material observed as intact prodrug, large intestine) of the same molecule?
A: 74.5%

Q: What about the remaining at 2 h [6, 25] of the same molecule?
A: 85%

Q: And the remaining at 0.5 h [6, 26]?
A: 81.3%

Q: What about the remaining at 2 h [6, 27] of the same molecule?
A: 73.3%

Q: And the concentration at 0.5 h [6, 28]?
A: 22200 nM

Q: And the remaining at 0.5 h [6, 29]?
A: 97.1%

Q: What about the remaining at 0.5 h [6, 30] of the same molecule?
A: 86.7%

Q: And the remaining at 2 h [6, 31]?
A: 67.7%

Q: And the remaining at 0.5 h ([6]; mouse, spleen, 50 mg/kg, SPLEEN, 30 min, 50 mg/kg i.p. or i.v., CD-1 nude mice, read-out: stability: percentage of material observed as intact prodrug, spleen)?
A: 96.5%

Q: And the remaining at 0.5 h [6, 32]?
A: 100%

Q: And the remaining at 2 h ([6]; mouse, tumor, 50 mg/kg, TUMOR, 120 min, 50 mg/kg i.p. or i.v., CD-1 nude mice, read-out: stability: percentage of material observed as intact prodrug, tumor)?
A: 88.1%
